Series [1] has as its system Mus musculus. As to the kind of experiment: Tested for minimum effective dose in LPS-induced shock model in mice after intravenous administration at a dose of 5 mg / kg; survival rate=10/18. It counts as functional. As to conditions: read-out: MED.
Series [2] deals with Rattus norvegicus. Description: Tested for minimum effective dose in D-(+)-Galactosamine/ LPS-induced hepatitis model in rat after intravenous dosage of 1 g/ 7.5 ug/ 5 mL/kg; survival rate=7/18. Type of series: functional. As to conditions: read-out: MED.
Series [3] is described as follows: Tested for the safety in rats reported as minimum lethal dose; mortality rate=0/3. It counts as ADME. As to conditions: rat, in vivo.
Series [4] relates to Rattus norvegicus. As to the kind of experiment: Tested for the inhibition of Inhibitor of Tumor necrosis factor alpha production after intravenous administration to rat. It counts as functional. As to conditions: read-out: ID50 (the source's name).
Series [5] concerns Rattus norvegicus. As to the kind of experiment: Tested for the inhibition of umor necrosis factor alpha production after intravenous administration at the dosage of 30 mg/kg to rat. It counts as functional.
Series [6] has as its system Rattus norvegicus. Description: Tested for the inhibition of Tumor necrosis factor alpha production after intravenous administration to rat. It counts as functional. As to conditions: read-out: ID50 (the source's name).
The test system of series [7] is Mus musculus. As to the kind of experiment: Tested for the inhibition of Tumor necrosis factor alpha production after intravenous administration in mice. It counts as functional. As to conditions: read-out: ID50 (the source's name).
For series [8], the system named is Mus musculus. Description: Tested for the inhibition of Tumor necrosis factor alpha production after intravenous administration at the dosage of 10 mg/kg to mice; no activity was observed. Type of series: functional.
Series [9] relates to Rattus norvegicus. Description: Tested for the inhibition of Tumor necrosis factor alpha production after intravenous administration at the dosage of 10 mg/kg to rat. Type of series: functional. Conditions: for inhibition in vivo at 10 mg/kg: Rattus norvegicus.
For series [10], the system named is Mus musculus. Description: Tested for minimum effective dose in LPS-induced shock model in mice after intravenous administration at a dose of 5 mg / kg; survival rate=14/20. Type of series: functional. Conditions: read-out: MED.
In series [11] the test system is Rattus norvegicus. As to the kind of experiment: Tested for minimum effective dose in D-(+)-Galactosamine/ LPS-induced hepatitis model in rat after intravenous dosage of 1 g/ 7.5 ug/ 5 mL/kg; survival rate=6/18. It counts as functional. As to conditions: read-out: MED.
In series [12] the test system is Rattus norvegicus. As to the kind of experiment: Tested for minimum effective dose in D-(+)-Galactosamine/ LPS-induced hepatitis model in rat after intravenous dosage of 1 g/ 7.5 ug/ 5 mL/kg; survival rate=8/18. It counts as functional. As to conditions: read-out: MED.
Series [13] in a line: Tested for the safety in rats reported as minimum lethal dose; mortality rate=1/3. Type of series: ADME. Conditions: rat, in vivo.

Where only a bound is given, the exact number is not on record here.

Usually inhibition in vivo stands for the drop in the measured response relative to a control, in per cent. For orientation: Inhibition means the share of the control response that was lost under treatment. Read a high Inhibition as a response far below the control.

Take `CCCCCCCC(=O)N[C@H](c1cccc(OC)c1)[C@H](C)OP(=O)([O-])[O-].[Na+].[Na+]`: the minimal effective dose in series [1] came to 0.1 mg/kg; in [2] it was 0.3 mg/kg. Further, in series [3], the MLD was more than 100 mg/kg. Moreover, the ED50 in [4] was 0.03 mg/kg.
For the compound `CCCCCCCC(=O)N[C@@H](c1ccccc1)[C@@H](C)OP(=O)(O)O`, in series [5], the inhibition in vivo at 30 mg/kg was found to be 5%.
In the case of `CCCCCCCC(=O)N[C@@H](c1cccc(OC)c1)[C@H](C)OP(=O)([O-])[O-].[Na+].[Na+]`, in series [6], the ED50 stood at 3.7 mg/kg.
Regarding `CCCCCCCC(=O)N[C@H](c1ccccc1)C1(OP(=O)([O-])[O-])CCC1.[Na+].[Na+]`, in series [7], the ED50 is 9.5 mg/kg.
Regarding `CCCCCCCC(=O)N[C@@H](COP(=O)([O-])[O-])c1ccccc1.[Na+].[Na+]`, the ED50 in series [6] amounted to 3 mg/kg.
On to `CCCCCCCC(=O)N[C@@H](CO)c1ccccc1`, for which the inhibition in vivo at 10 mg/kg in series [8] worked out at 14%.
Turning to `CCCCCCCC(=O)N[C@@H](c1ccccc1)[C@H](C)OP(=O)(O)O`, the inhibition in vivo at 30 mg/kg in series [5] was found to be 17%.
As to `CCCCCCCC(=O)N[C@H](c1ccccc1)[C@H](CO)OP(=O)(O)O`, in series [9], the inhibition in vivo at 10 mg/kg is 42%.
Turning to `CCCCCCCC(=O)N(C)[C@@H](COP(=O)([O-])[O-])c1ccccc1.[Na+].[Na+]`, the ED50 in series [6] came to 9.8 mg/kg.
With `CCCCCCCC(=O)N[C@H](c1cccc(OC)c1)C(C)(C)OP(=O)(O)O`, the inhibition in vivo at 10 mg/kg in series [9] is 12%.
For `CCCCCCOC(=O)N[C@H](c1cccc(OC)c1)[C@H](C)OP(=O)([O-])[O-].[Na+].[Na+]`, the minimal effective dose in series [10] and in series [11] was 0.1 mg/kg in each case. The ED50 in series [6] was determined as 0.02 mg/kg. In addition, in [3], the MLD was more than 100 mg/kg.
`CCCCCCCC(=O)N[C@H](c1ccccc1)[C@@H](C)OP(=O)(O)O`: the inhibition in vivo at 30 mg/kg in series [5] was 23%.
`CCCCCCCC(=O)N[C@@H]1c2ccccc2C[C@@H]1OP(=O)([O-])[O-].[Na+].[Na+]`: the Inhibition in series [9] is 34%.
On to `CCCCCCCC(=O)N[C@H](c1ccccc1)[C@@H](OP(=O)(O)O)c1ccccc1`, for which the inhibition in vivo at 10 mg/kg in series [9] is 3%.
Regarding `CCCCCCCC(=O)N[C@H](c1cccc(OC)c1)[C@@H](C)OP(=O)(O)O`, the inhibition in vivo at 10 mg/kg in [9] was -13%.
On the same count and under the same terms, for `CCCCCCCC(=O)N[C@@H](c1cccc(OC)c1)[C@@H](C)OP(=O)(O)O` the value was 38%.
For `CCCCCCCC(=O)N[C@@H](COP(=O)([O-])[O-])c1cccc(OC)c1.[Na+].[Na+]`, the ED50 in series [6] is 0.26 mg/kg.
Still for that read-out and setting: for `CCCCCCCC(=O)N[C@H](c1ccccc1)[C@H](C)OP(=O)([O-])[O-].[Na+].[Na+]` the value was 4.5 mg/kg.
With `CCCCCCCC(=O)N[C@H](c1cccc(OC(C)C)c1)[C@H](C)OP(=O)([O-])[O-].[Na+].[Na+]`, the minimal effective dose in series [1] and in series [12] was 0.3 mg/kg each time. Also, the ED50 in [6] is 0.05 mg/kg. The compound also registered an MLD in series [13] of 100 mg/kg.
Take `CCCCCCCC(=O)N[C@@H]1c2ccccc2C[C@H]1OP(=O)([O-])[O-].[Na+].[Na+]`: the ED50 in series [6] came to 2.4 mg/kg.

The values above are taken from ChEMBL document CHEMBL1135964, “Highly potent inhibitors of TNF-alpha production. Part 2: identification of drug candidates” (Bioorg Med Chem Lett, 2002).
